Laboratory results reported in patent publication US11040053B2, “Compositions and methods for activating “stimulator of interferon gene”13 dependent signalling” (CHINOOK THERAPEUTICS, INC., priority 2015, dated 2021).
“Also recorded” adds a separate entry of the source.

Columns and labels:
[1] = target: hSTING(WT) (Homo sapiens, UniProt Q86WV6, H232R); assay: Differential scanning fluorometry (DSF) binding to purified hSTING WT; design: DNA encoding amino acids 140-379 (amino acid numbering corresponding to Swiss Prot Q86WV6); 6xHIS (N, cleaved yes); SUMO (N, cleaved yes); made in house; host or cells: Rosetta2 (DE3) E. coli; conditions: DSF, 1 mg/ml STING AA140-379, ligand 1 mM
hSTING(WT), sequence (Q86WV6 140-379 H232R): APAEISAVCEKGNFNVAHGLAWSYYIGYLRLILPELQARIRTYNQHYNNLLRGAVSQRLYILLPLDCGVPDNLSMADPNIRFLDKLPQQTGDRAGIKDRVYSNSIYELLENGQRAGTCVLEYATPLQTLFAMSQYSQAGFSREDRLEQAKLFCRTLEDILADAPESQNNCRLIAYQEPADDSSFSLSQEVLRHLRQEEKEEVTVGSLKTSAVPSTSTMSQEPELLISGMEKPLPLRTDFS

[2] = target: T1, hSTING(REF) (Homo sapiens, UniProt Q86WV6); assay: Differential scanning fluorometry (DSF) binding to purified hSTING REF allele; design: DNA encoding amino acids 140-379 (amino acid numbering corresponding to Swiss Prot Q86WV6); 6xHIS (N, cleaved yes); SUMO (N, cleaved yes); made in house; host or cells: Rosetta2 (DE3) E. coli; conditions: DSF, 1 mg/ml STING AA140-379, ligand 1 mM
Target sequence in this assay (Q86WV6 140-379): as the sequence (Q86WV6 140-379 H232R) above, with R93H counted along it

[3] = target: T2, HAQ allele hSTING (Homo sapiens, UniProt Q86WV6, G230A/H232R/R293Q); assay: Differential scanning fluorometry (DSF) binding to purified hSTING HAQ allele; conditions: DSF, 1 mg/ml STING AA140-379, ligand 1 mM
T2 construct: DNA encoding amino acids 140-379 (amino acid numbering corresponding to Swiss Prot Q86WV6); 6xHIS (N, cleaved yes); SUMO (N, cleaved yes); made in house; host or cells: Rosetta2 (DE3) E. coli
T2 sequence (Q86WV6 140-379 G230A/H232R/R293Q limits assumed): as the sequence (Q86WV6 140-379 H232R) above, with G91A, R154Q counted along it

[4] = target: T1, hSTING(REF); assay: IFN-β luciferase reporter in HEK293T cells stably expressing hSTING(REF), digitonin permeabilization; conditions: FIGS. 6A-B, 0.1 μM to 100 μM and 6.25 μM CDN
Target sequence in this assay (Q86WV6 whole entry, the tested form may be a part): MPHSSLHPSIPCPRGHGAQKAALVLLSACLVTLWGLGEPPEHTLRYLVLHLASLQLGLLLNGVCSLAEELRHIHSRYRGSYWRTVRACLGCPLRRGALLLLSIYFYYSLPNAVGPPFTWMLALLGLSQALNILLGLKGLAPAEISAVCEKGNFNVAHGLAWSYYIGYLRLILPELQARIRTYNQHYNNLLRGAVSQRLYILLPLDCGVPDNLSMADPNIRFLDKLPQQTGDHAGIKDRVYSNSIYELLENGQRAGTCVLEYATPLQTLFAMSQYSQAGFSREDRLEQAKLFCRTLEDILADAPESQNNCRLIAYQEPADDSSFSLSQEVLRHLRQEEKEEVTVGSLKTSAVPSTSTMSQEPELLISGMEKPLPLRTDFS
Procedure: 24 hours later, cells were stimulated with native and synthetic CDN derivative molecules using digitonin permeabilization to ensure uniform uptake.
After 20 min, the stimulation mixtures were removed and 200 ul of DMEM media supplemented with 10% (vol/vol) fetal bovine serum, 1% L-Glutamine, and 1% Penicillin/Streptomycin was added. Cells were incubated an additional 6 hours (37° C., 5% CO2) and then cell lysates were prepared and reporter gene activity measured on a Spectramax M3 luminometer using the Dual-Glo Luciferase Assay System (Promega, catalog #E2920) as described by the manufacturer. IFNβ firefly luciferase reporter gene activity was normalized to TK renilla luciferase gene activity and plotted as fold induction over activity in unstimulated cells (mean+/−s.e.m.).

[5] = target: T3, wild type (WT) STING allele (Homo sapiens, UniProt Q86WV6, H232R); assay: Cytokine transcript induction (qRT-PCR) in STING^WT/WT hPBMCs; assay type: cell-based; conditions: FIGS. 7A-B, 2 hours stimulation, 100 μM to 0.1 μM
T3 construct: one donor was homozygous for the wild type (WT) STING allele; endogenous in cells; host or cells: human PBMCs, donor STING WT/WT
T3 sequence (Q86WV6 whole entry H232R): as the sequence (Q86WV6 whole entry, the tested form may be a part) above, with H232R counted along it
Procedure: (§1) The induction of type I interferon was measured in human primary blood mononuclear cells (hPBMCs) to evaluate the potency of mono- or di-F-CDN compounds as described herein. hPBMCs from two unique donors were used: one donor was homozygous for the wild type (WT) STING allele (STING^WT/WT) and the other donor was homozygous for the so-called reference (REF) STING allele (STING^REF/REF). The STING genotype of these donors was determined by PCR amplification and sequencing: genomic DNA was isolated from 10^4 hPBMCs using Quick Extract DNA Extraction Solution (Epicentre) and was used to amplify regions of exon 3, 6, and 7 of the human STING gene.
(§2) Cells were incubated at 37° C., 5% CO2 with concentrations ranging from 100 μM to 0.1 μM of each CDN. After 2 hours (FIGS. 7 and 8) or 2 hours and 6 hours (FIGS. 9-13) stimulation, cells were harvested by centrifugation and washed once with phosphate-buffered saline. Cellular RNA was isolated using the Aurum Total RNA 96 Kit and cDNA was synthesized using the iScript cDNA Synthesis Kit. Target and reference gene expression was assessed by real-time qRT-PCR using PrimePCR probe assays and the CFX96 gene cycler (all reagents and equipment from BioRad). Normalized IFNβ expression was expressed relative to untreated cells. Target genes included type I interferon (IFNβ), Th1-associated cytokines (IFNγ, IL-12p40) and NF-kB dependent inflammatory cytokines (TNFα, IL-6). Reference genes included GUSB alone (FIGS. 7 and 8) or GUSB and HSP90AB1 (FIGS. 9-13).

[6] = system: B16.SIY cells; assay: B16.SIY melanoma mouse model, intra-tumoral injection; assay type: in vivo, C57BL/6 mice; conditions: FIG. 14B, 5 μg IT, day 7 post-IT injection, vs HBSS control
Procedure: To determine whether the derivative molecules elicit anti-tumor immunity, 6-8 week old female C57BL/6 mice (8 mice per group) were implanted with B16.SIY cells (5×10^5 cells in 100 μL PBS). Mice were treated with reference compound 3′3′-RR-(A)(A) and di-F compound 3′3′-RR-(2′F-A)(2′F-A) (5, 50, 100 μg in a total volume of 40 μL HBSS), or HBSS vehicle control. Treatments began when tumors reached a volume of approximately 100 mm^3, on day 9 post tumor implantation. The CDN compounds were administered by […] injection into the center of the tumor (IT) using a 27 gauge needle. Mice were bled on day 16 post tumor implantation and PBMCs were isolated by Ficoll gradient (Miltenyi Biotech). 1×10^5 PBMCs were pre-incubated with anti-CD16/32 monoclonal antibody to block potential nonspecific binding, and labeled with PE-MHC class I pentamer (Proimmune) consisting of murine H-2Kb complexed to […] (SIY, SEQ ID NO: 16) peptide, anti-TCRβ-AF700 (H57-597), anti-CD8-Pacific Blue (53-6.7), anti-CD4-Pacific Orange (RM4-5) (all antibodies from BioLegend) and the Fixable Viability Dye eFluor 450 (eBioscience). Stained cells were analyzed using FACS Versa cytometer with FACSDiva software (BD). Data analysis was conducted with FlowJo software (Tree Star).

[7] = target: T4, reference (REF) STING allele (Homo sapiens, UniProt Q86WV6); assay: Cytokine transcript induction (qRT-PCR) in STING^REF/REF hPBMCs; assay type: cell-based; conditions: FIGS. 8A-B, 2 hours stimulation, 100 μM to 0.1 μM
T4 construct: endogenous in cells
T4 sequence (Q86WV6 whole entry): as the sequence (Q86WV6 whole entry, the tested form may be a part) above
Procedure: as §1, §2

[8] = target: T5, hSTING HAQ allele (Homo sapiens, UniProt Q86WV6, G230A/H232R/R293Q/R71H); assay: IRF-3 inducible secreted luciferase reporter in THP1-Dual cells without digitonin; assay type: cell-based; conditions: without digitonin in THP1 cells (HAQ allele)
T5 construct: a human monocyte cell line containing the hSTING HAQ allele; host or cells: THP1-Dual cells
T5 sequence (Q86WV6 whole entry R71H/G230A/H232R/R293Q): as the sequence (Q86WV6 whole entry, the tested form may be a part) above, with R71H, G230A, H232R, R293Q counted along it
Outline: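 THP1-Dual cells were exposed for 30 min, washed, and cultured overnight at 37 °C in fresh RPMI/10% FBS. Secreted luciferase in the supernatant was read with QUANTI-Luc as the type I interferon signal. EC50 was taken from a 10-point serial-dilution dose-response curve.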

For `Nc1ncnc2c1ncn2[C@@H]1O[C@@H]2CO[P@@](=O)(S)O[C@H]3[C@@H](O)[C@H](n4cnc5c(N)ncnc54)O[C@@H]3CO[P@@](=O)(S)O[C@H]2[C@H]1O` [3'3'-RR-(A)(A), reference compound], the “hSTING Tm Shift WT” value [1] was 9.6 °C, the “hSTING Tm Shift REF” value [2] was 5.7 °C and the “hSTING Tm Shift HAQ” value [3] was 15.5 °C. The “IFNβ luciferase reporter induction by hSTING(REF), in words” value [4] was “responded poorly”, the “relative normalized IFNβ expression, in words” value [5] was “induced similar levels of IFNβ; also recorded: induced higher levels of IFNβ transcript when compared to the 3′3′-(A)(A) compound” and the “percent of SIY-specific CD8+ T cells in PBMCs, in words” value [6] was “elicited significantly SIY-specific CD8^+ T cells”. The “relative normalized IFNβ expression, in words” value [7] was “did not stimulate production of appreciable IFNβ transcript levels” and the EC50 [8] was 25 µM.
